# Assay results reported in ChEMBL document CHEMBL4373744, “Modifying the lipophilic part of phenylthiazole antibiotics to control their drug-likeness” (Eur J Med Chem, 2020).
# Active and inactive are the calls of the source. The calls are words filed in the database; no cut-off is given here.
# Assays:
# [1] = tested on: Staphylococcus aureus; assay: microbe, parasite or virus in culture; conditions: NRS123
# Description: Antimicrobial activity against methicillin-resistant Staphylococcus aureus NRS123 by broth liquid microdilution method
# [2] = tested on: Escherichia coli; assay: Antimicrobial activity against Escherichia coli JW55031 harboring deltatolC mutant by broth liquid microdilution method; format: functional
# [3] = tested on: Staphylococcus aureus; assay: Bactericidal activity against methicillin-resistant Staphylococcus aureus USA400 assessed as 3 log reduction in number of colony forming units at 5 times MIC incubated for 10 hrs by aliquots transfer to tryptic soy agar and grown for 18 to 20 hrs by Time-kill assay relative to control; format: functional; parameters: scale not given: the % may be the effect or the level left
# [4] = tested on: Staphylococcus aureus; assay: Antibiofilm activity against methicillin-resistant Staphylococcus aureus USA300 at 2 times MIC incubated for 24 hrs by crystal violet staining based assay relative to control; format: functional
# [5] = tested on: Enterococcus faecalis; assay: microbe, parasite or virus in culture; conditions: ATCC 51299
# [6] = tested on: Staphylococcus aureus; assay: microbe, parasite or virus in culture; conditions: NRS119
# Description: Antimicrobial activity against methicillin-resistant Staphylococcus aureus NRS119 by broth liquid microdilution method
# [7] = tested on: Streptococcus pneumoniae; assay: Antimicrobial activity against methicillin-resistant Streptococcus pneumoniae ATCC 700677 by broth liquid microdilution method; format: functional
# [8] = tested on: Caco-2; assay: Cytotoxicity against human Caco2 cells assessed as reduction in cell viability at 64 ug/ml by MTS assay relative to control
# [9] = tested on: Escherichia coli; assay: Antimicrobial activity against Escherichia coli BW25113 by broth liquid microdilution method; format: functional
# [10] = tested on: Staphylococcus aureus; assay: Antibiofilm activity against methicillin-resistant Staphylococcus aureus USA300 incubated for 24 hrs by crystal violet staining based assay; format: functional, organism-based
# [11] = tested on: Staphylococcus aureus; assay: microbe, parasite or virus in culture; conditions: NRS 107
# Description: Antimicrobial activity against methicillin-sensitive Staphylococcus aureus NRS 107 by broth liquid microdilution method
# [12] = tested on: Listeria monocytogenes; assay: Antimicrobial activity against Listeria monocytogenes ATCC 19111 by broth liquid microdilution method; format: functional
# [13] = tested on: Staphylococcus aureus; assay: microbe, parasite or virus in culture; conditions: ATCC 6538
# Description: Antimicrobial activity against methicillin-sensitive Staphylococcus aureus ATCC 6538 by broth liquid microdilution method
# [14] = tested on: Staphylococcus aureus; assay: Antimicrobial activity against vancomycin-resistant Staphylococcus aureus 10 by broth liquid microdilution method; format: functional
# [15] = tested on: Staphylococcus aureus; assay: microbe, parasite or virus in culture; conditions: NRS 386
# Description: Antimicrobial activity against methicillin-resistant Staphylococcus aureus NRS 386 by broth liquid microdilution method
# [16] = tested on: Enterococcus faecium; assay: Antimicrobial activity against vancomycin-resistant Enterococcus faecium ATCC 700221 by broth liquid microdilution method; format: functional
# [17] = tested on: Staphylococcus aureus; assay: microbe, parasite or virus in culture; conditions: NRS 385
# Description: Antimicrobial activity against methicillin-resistant Staphylococcus aureus NRS 385 by broth liquid microdilution method
# [18] = tested on: Streptococcus pneumoniae; assay: Antimicrobial activity against cephalosporin-resistant Streptococcus pneumoniae ATCC 51916 by broth liquid microdilution method; format: functional
# [19] = tested on: Staphylococcus aureus; assay: microbe, parasite or virus in culture; conditions: NRS384
# Description: Antimicrobial activity against methicillin-resistant Staphylococcus aureus NRS384 by broth liquid microdilution method
# [20] = tested on: Staphylococcus aureus; assay: Bactericidal activity against methicillin-resistant Staphylococcus aureus USA400 assessed as reduction in number of colony forming units at 5 times MIC incubated for 24 hrs by aliquots transfer to tryptic soy agar and grown for 18 to 20 hrs by Time-kill assay; format: functional, organism-based
# [21] = tested on: Staphylococcus epidermidis; assay: Antimicrobial activity against methicillin-resistant Staphylococcus epidermidis NRS101 by broth liquid microdilution method; format: functional
# [22] = tested on: Staphylococcus aureus; assay: Antimicrobial activity against vancomycin-resistant Staphylococcus aureus 12 by broth liquid microdilution method; format: functional
# [23] = tested on: Staphylococcus aureus; assay: Antibiofilm activity against methicillin-resistant Staphylococcus aureus USA300 at 4 times MIC incubated for 24 hrs by crystal violet staining based assay relative to control; format: functional
# [24] = tested on: Staphylococcus aureus; assay: Antimicrobial activity against methicillin-resistant Staphylococcus aureus USA400 infected in mouse J774 cells assessed as reduction in […] bacterial count at 2 to 4 times MIC incubated for 24 hrs; format: functional, organism-based
# [25] = tested on: Staphylococcus aureus; assay: Bactericidal activity against methicillin-resistant Staphylococcus aureus USA400 assessed as 3 log reduction in number of colony forming units at 5 times MIC incubated for 12 hrs by aliquots transfer to tryptic soy agar and grown for 18 to 20 hrs by Time-kill assay; format: functional, organism-based
# [26] = Half life in Sprague-Dawley rat at 50 mg/kg, po via gavage administered as a single dose measured upto 24 hrs by LC/MS/MS analysis; format: ADME, organism-based; conditions: in vivo
# [27] = tested on: Staphylococcus aureus; assay: Bactericidal activity against methicillin-resistant Staphylococcus aureus USA400 assessed as 3 log reduction in number of colony forming units at 5 times MIC incubated for 10 hrs by aliquots transfer to tryptic soy agar and grown for 18 to 20 hrs by Time-kill assay; format: functional, organism-based
# [28] = tested on: J774; assay: Cytotoxicity against mouse J774 cells assessed as reduction in cell viability at 4 to 8 ug/ml incubated for 24 hrs by MTS assay; format: cell-based; conditions: j774, 24 h
# [29] = tested on: Staphylococcus aureus; assay: Antimicrobial activity against methicillin-resistant Staphylococcus aureus USA400 infected in mouse J774 cells assessed as reduction in […] bacterial count at 4 times MIC incubated for 24 hrs relative to control; format: functional; parameters: scale not given: the % may be the effect or the level left
# [30] = Aqueous solubility of compound in pH 6.8 phosphate buffer; format: physicochemical
# [31] = AUC in Sprague-Dawley rat at 50 mg/kg, po via gavage administered as a single dose measured upto 24 hrs by LC/MS/MS analysis; format: ADME, organism-based; parameters: time < 24 hr, dose 50 mg/kg, route oral; conditions: in vivo
# [32] = tested on: Staphylococcus aureus; assay: Antimicrobial activity against methicillin-resistant Staphylococcus aureus USA400 infected in mouse J774 cells assessed as reduction in […] bacterial count at 2 times MIC incubated for 24 hrs relative to control; format: functional; parameters: scale not given: the % may be the effect or the level left
# [33] = Clearance in Sprague-Dawley rat at 50 mg/kg, po via gavage administered as a single dose measured upto 24 hrs by LC/MS/MS analysis; format: ADME, organism-based; conditions: in vivo
# [34] = Cmax in Sprague-Dawley rat at 50 mg/kg, po via gavage administered as a single dose measured upto 24 hrs by LC/MS/MS analysis; format: ADME, organism-based; parameters: dose 50 mg/kg, route oral; conditions: in vivo
# [35] = Volume of distribution in Sprague-Dawley rat at 50 mg/kg, po via gavage administered as a single dose measured upto 24 hrs by LC/MS/MS analysis; format: ADME, organism-based; conditions: in vivo
# [36] = Tmax in Sprague-Dawley rat at 50 mg/kg, po via gavage administered as a single dose measured upto 24 hrs by LC/MS/MS analysis; format: ADME, organism-based; conditions: in vivo
# [37] = tested on: Staphylococcus aureus; assay: Bactericidal activity against methicillin-resistant Staphylococcus aureus USA400 assessed as reduction in number of colony forming units at 5 times MIC incubated for 12 hrs by aliquots transfer to tryptic soy agar and grown for 18 to 20 hrs by Time-kill assay relative to control; format: functional; parameters: scale not given: the % may be the effect or the level left
# [38] = tested on: Staphylococcus aureus; assay: Bactericidal activity against methicillin-resistant Staphylococcus aureus USA400 assessed as reduction in number of colony forming units at 5 times MIC incubated for 10 hrs by aliquots transfer to tryptic soy agar and grown for 18 to 20 hrs by Time-kill assay relative to control; format: functional; parameters: scale not given: the % may be the effect or the level left
structure (smiles),measurement,setting,value
C/C(=N\NC(=N)N)c1sc(-c2ccc(C#CCCn3ccnc3)cc2)nc1C,MBC,[1],8 µg/mL
same,MIC,[1],4 µg/mL
same,MIC,[2],16 µg/mL
same,Activity,[3],99.9%
same,Activity,[4],65%
same,MBC,[5],32 µg/mL
same,MIC,[5],8 µg/mL
same,MBC,[6],32 µg/mL
same,MIC,[6],8 µg/mL
same,MBC,[7],16 µg/mL
same,MIC,[7],4 µg/mL
same,Activity,[8],70%
same,MIC,[9],> 64 µg/mL
same,Activity,[10],Dose-dependent effect
same,MBC,[11],8 µg/mL
same,MIC,[11],4 µg/mL
same,MBC,[12],32 µg/mL
same,MIC,[12],8 µg/mL
same,MBC,[13],16 µg/mL
same,MIC,[13],4 µg/mL
same,MBC,[14],8 µg/mL
same,MIC,[14],4 µg/mL
same,MBC,[15],16 µg/mL
same,MIC,[15],4 µg/mL
same,MBC,[16],16 µg/mL
same,MIC,[16],4 µg/mL
same,MBC,[17],16 µg/mL
same,MIC,[17],4 µg/mL
same,MBC,[18],16 µg/mL
same,MIC,[18],8 µg/mL
same,MBC,[19],16 µg/mL
same,MIC,[19],4 µg/mL
same,Activity,[20],Active
same,MBC,[21],16 µg/mL
same,MIC,[21],4 µg/mL
same,MBC,[22],16 µg/mL
same,MIC,[22],4 µg/mL
same,Activity,[23],81%
CN[C@H](CC(C)C)C(=O)N[C@H]1C(=O)N[C@@H](CC(N)=O)C(=O)N[C@H]2C(=O)N[C@H]3C(=O)N[C@H](C(=O)N[C@H](C(=O)O)c4cc(O)cc(O)c4-c4cc3ccc4O)[C@H](O)c3ccc(c(Cl)c3)Oc3cc2cc(c3O[C@@H]2O[C@H](CO)[C@@H](O)[C@H](O)[C@H]2O[C@H]2C[C@](C)(N)[C@H](O)[C@H](C)O2)Oc2ccc(cc2Cl)[C@H]1O [VANCOMYCIN],MBC,[1],1 µg/mL
same,MIC,[2],≤ 0.5 µg/mL
same,Activity,[4],9%
same,MBC,[5],64 µg/mL
same,MIC,[5],32 µg/mL
same,MBC,[6],2 µg/mL
same,MIC,[7],2 µg/mL
same,MIC,[9],≤ 0.5 µg/mL
same,MBC,[11],2 µg/mL
same,MIC,[12],1 µg/mL
same,MBC,[13],2 µg/mL
same,MBC,[14],> 64 µg/mL
same,MIC,[14],64 µg/mL
same,MBC,[15],1 µg/mL
same,MBC,[16],> 64 µg/mL
same,MIC,[16],> 64 µg/mL
same,MBC,[17],1 µg/mL
same,MIC,[18],1 µg/mL
same,MBC,[19],1 µg/mL
same,Activity,[24],inactive
same,MBC,[21],2 µg/mL
same,MBC,[22],64 µg/mL
same,MIC,[22],64 µg/mL
same,Activity,[23],16%
same,Activity,[25],Active
C/C(=N\NC(=N)N)c1sc(-c2ccc(C#CCCN3CCC3)cc2)nc1C,MBC,[1],4 µg/mL
same,MIC,[1],2 µg/mL
same,MIC,[2],32 µg/mL
same,half-life,[26],2.9 h
same,Activity,[27],Active
same,Activity,[28],Non-Toxic
same,Activity,[4],31%
same,MBC,[5],16 µg/mL
same,MIC,[5],4 µg/mL
same,MBC,[6],8 µg/mL
same,MIC,[6],2 µg/mL
same,MBC,[7],8 µg/mL
same,MIC,[7],2 µg/mL
same,MIC,[9],> 64 µg/mL
same,Activity,[10],Dose-dependent effect
same,MBC,[11],8 µg/mL
same,MIC,[11],2 µg/mL
same,Activity,[29],99.7%
same,solubility,[30],500 µM
same,MBC,[12],8 µg/mL
same,MIC,[12],4 µg/mL
same,MBC,[13],8 µg/mL
same,MIC,[13],2 µg/mL
same,MBC,[14],8 µg/mL
same,MIC,[14],2 µg/mL
same,AUC at 24 h,[31],162 µg·h/mL
same,MBC,[15],8 µg/mL
same,MIC,[15],2 µg/mL
same,MBC,[16],8 µg/mL
same,MIC,[16],2 µg/mL
same,Activity,[32],98%
same,CL/F,[33],5.17 mL/min
same,Cmax,[34],15600 ng/mL
same,MBC,[17],4 µg/mL
same,MIC,[17],4 µg/mL
same,MBC,[18],8 µg/mL
same,MIC,[18],2 µg/mL
same,MBC,[19],4 µg/mL
same,MIC,[19],2 µg/mL
same,Vd,[35],1.29 L
same,Tmax,[36],1 h
same,MBC,[21],4 µg/mL
same,MIC,[21],1 µg/mL
same,Activity,[37],100%
same,MBC,[22],16 µg/mL
same,MIC,[22],4 µg/mL
same,Activity,[23],41%
C/C(=N\NC(=N)N)c1sc(-c2ccc(C#CCCN3CC(O)C3)cc2)nc1C,MBC,[1],8 µg/mL
same,MIC,[1],4 µg/mL
same,Activity,[28],Non-Toxic
same,Activity,[4],31%
same,MBC,[5],16 µg/mL
same,MIC,[5],8 µg/mL
same,MBC,[6],8 µg/mL
same,MIC,[6],4 µg/mL
same,MBC,[7],16 µg/mL
same,MIC,[7],4 µg/mL
same,Activity,[38],100%
same,Activity,[10],Dose-dependent effect
same,MBC,[11],4 µg/mL
same,MIC,[11],4 µg/mL
same,Activity,[29],99%
same,MBC,[12],32 µg/mL
same,MIC,[12],4 µg/mL
same,MBC,[13],4 µg/mL
same,MIC,[13],4 µg/mL
same,MBC,[14],8 µg/mL
same,MIC,[14],4 µg/mL
same,MBC,[15],8 µg/mL
same,MIC,[15],4 µg/mL
same,MBC,[16],16 µg/mL
same,MIC,[16],4 µg/mL
same,Activity,[32],55%
same,MBC,[17],4 µg/mL
same,MIC,[17],4 µg/mL
same,MBC,[18],16 µg/mL
same,MIC,[18],4 µg/mL
same,MBC,[19],4 µg/mL
same,MIC,[19],4 µg/mL
same,MBC,[21],16 µg/mL
same,MIC,[21],2 µg/mL
same,MBC,[22],8 µg/mL
same,MIC,[22],4 µg/mL
same,Activity,[23],72%
